Measured values from a melting point compilation (Tetko et al.; mined from patent text by program, amines drawn as free bases though some values may be those of a salt).

`O=[N+]([O-])c1ccc(CCc2nccs2)cc1` showed a melting point of 92 to 93 °C. Work on `COC(=O)c1ccc(OCCNC(=O)C2Cc3ccccc3N2S(=O)(=O)c2ccc(-c3ccc(F)cc3)cc2)cc1C(F)(F)F` (configuration not stated) yielded a melting point of 62 to 70 °C. `COC(=O)C(C)(N)Cc1c[nH]c2ccc(OC)cc12` (racemic) gave a melting point of 131 to 132 °C. `O=[N+]([O-])c1ccc(SSc2nccc(O)n2)c(C(Cl)(Cl)Cl)c1` showed a melting point of 174 °C. `Oc1ccc(-n2ccc(Nc3ccccc3)n2)cc1` gave a melting point of 182 to 185 °C. Compound `COc1ccc2nc(NC(=O)CO)sc2c1` has a melting point of 208 to 209 °C. `O=c1c2c(Cl)cc(Cl)cc2nc2n1CCCCC2` showed a melting point of 110 to 112 °C. In the case of `COc1ccc(C(=O)O)cc1Nc1ccccc1`, the melting point is reported as 198 to 200 °C. Compound `Cc1cc(C(=O)O)ccc1-c1ccc2cc3c(cc2c1)C(C)(C)CCC3(C)C` has a melting point of 248 to 250 °C. Compound `CCOC(=O)C(=CC=C(SC)C(=O)c1ccccc1)N(C)C` has a melting point of 78 °C. `Nc1c(SC(F)(F)F)c(C(=O)NC2CC2)nn1-c1c(Cl)cc(C(F)(F)F)cc1Cl` gave a melting point of 193 °C. Work on `COc1cc(COc2nn(-c3ccccc3)cc2C=O)ccc1OCc1csc(N2CCCCC2)n1` yielded a melting point of 123 to 124 °C. Compound `CN(C)C(=O)C1CCCN(c2cc3ccccc3c(=O)[nH]2)C1` (configuration not stated) has a melting point of 187 to 188 °C. `COC(=O)c1ccc(CSCC(=O)[C@H](Cc2ccccc2)NC(=O)[C@H](CC(C)C)NC(=O)OCc2ccccc2)o1` gave a melting point of 85 to 93 °C. For `Cc1nc(N2CCN(Cc3ccc(F)cc3)C2=O)sc1-c1nn[nH]n1`, the melting point was 145 to 149 °C. `Cc1nc2c(s1)CCCC2=O` showed a melting point of 86 to 87 °C. `CC(C)(C)c1cc(NS(=O)(=O)c2ccc(N3CCNC3=O)cc2)cc(C(C)(C)C)c1` gave a melting point of 276 to 278 °C. `CCOS(=O)(=O)c1ccc(-c2ccc(CCl)cc2)cc1` showed a melting point of 112 to 116 °C. `CCOC(=O)C(CCO)=C(c1cccc(OC)c1)c1cccc(OC)c1` showed a melting point of 102 to 104 °C. `CCCCCCCCCCCCCCCCCC(=O)Nc1cccc(C(=O)N(CC(=O)OCC)CC(=O)OCC)c1` showed a melting point of 76 to 79 °C. `COc1ccc(C2(C#Cc3ccncc3)CCC(=O)CC2)cc1OC1CCCC1` showed a melting point of 88 to 89 °C. `O=C(NC1CCCCC1)NS(=O)(=O)c1ccc2c(c1)CCN(C(=O)N1CCCCC1)CC2` gave a melting point of 166 to 167 °C. Compound `CC(C)(C)OC(=O)CCS(=O)(=O)c1ccc(Br)cc1` has a melting point of 105 °C. In the case of `O=c1c(Cl)c(-c2ccc3c(ccn3[C@H]3CC[C@H](O)CC3)c2)ccn1CC1CC1`, the melting point is reported as 209 °C. With `CCOC(=O)c1ccc(NCCCc2ccc(Cl)cc2)cc1` the melting point was 122 to 124 °C. Compound `OCCCC1=NN(c2nc3ccccc3s2)C(O)(c2ccc(Cl)cc2)C1` (configuration not stated) has a melting point of 132 to 134 °C. Work on `COC(=O)ON(C)C(=O)C(C)Nc1c([N+](=O)[O-])cc(C)cc1[N+](=O)[O-]` (configuration not stated) yielded a melting point of 112 to 113 °C. `CCCc1nn(C)c2c(=O)n(CCOc3ccc(NC(C)=O)cc3)c(CC)nc12` showed a melting point of 100 to 104 °C. Compound `CC(C)CCn1c(=O)c(=NNc2ccccc2)c(=O)n(-c2ccccc2)c2ccccc21` has a melting point of 143 °C. Work on `COc1cccc(C2=Nc3ccc(N4CCOCC4)cc3C(=O)C2)c1OC` yielded a melting point of 235 to 236 °C. Compound `Cc1oc(-c2ccccc2)nc1COc1ccc(CON=C(CCCC(C)(C)C(=O)O)c2ccccc2)cc1` has a melting point of 111 to 112 °C. `O=C(O)c1ccc(OCCCCCCc2cccc(O)c2O)c(Cl)c1` gave a melting point of 157 to 160 °C. For `CC(C(=O)O)c1ccc2cc(OCc3ccc4ccccc4n3)ccc2c1` (configuration not stated), the melting point was 186 to 187 °C. With `CC(C(N)=O)n1nc(-c2cc(C(C)(C)C)c(O)c(C(C)(C)C)c2)c2cccnc21` (configuration not stated) the melting point was 192 to 194 °C. Compound `O=C(Nc1ccc(C(=O)N2Cc3cccnc3Oc3ccccc32)cn1)c1ccccc1-c1ccccc1` has a melting point of 107 to 114 °C. Work on `O=c1c2[nH]c(Cl)nc2n(CC2CC2)c(=O)n1CC1CC1` yielded a melting point of 220 °C. Compound `C#CC(=NOC)C(=O)OC` has a melting point of 82 to 83 °C. Work on `CCOCc1nc2c(N)nc3ccccc3c2n1CC1(N)CCOCC1` yielded a melting point of 53 to 63 °C. `CC1(C)C=Cc2c(ccc3c2C=CC(=O)C3=O)O1` showed a melting point of 189 to 193 °C. Compound `O=C(O)c1cccc([N+](=O)[O-])c1Nc1ccccc1Cl` has a melting point of 213 to 215 °C. `CCCNC(=O)C(C)=Cc1ccc2c(c1)c(Cc1ccc(C(=O)NS(=O)(=O)c3ccccc3C)cc1OC)cn2C` showed a melting point of 189 to 191 °C. In the case of `COc1cc2c(Nc3ccc(Cl)cc3F)c(C#N)cnc2c(OC)c1OC`, the melting point is reported as 166 to 168 °C. For `CC(Cn1cc(Cl)c2ccccc21)N(O)C(N)=O` (configuration not stated), the melting point was 168 to 171 °C. For `CC(=O)OC1CSC(Sc2ccc(C#N)cc2)C(OC(C)=O)C1OC(C)=O` (configuration not stated), the melting point was 155 °C. `O=C1[C@H]2CCC[C@H]2N(C(=O)CBr)c2ccccc2N1Cc1ccccc1` (relative stereo) gave a melting point of 177 to 179 °C. Work on `CCCCCCCCCCCCCCCCCCOc1cc(OCCCCC(=O)OC)cc(C(=O)OCc2ccccc2)c1` yielded a melting point of 40 to 42 °C. For `CCOC(=O)Nc1ccc(Cl)nc1`, the melting point was 110 °C. For `Cc1ccc(N)c(Cl)c1C#N`, the melting point was 117 to 119 °C. For `Cc1ccc(NC(=S)NCc2ccc3c(c2)CN(C2CCC(=O)NC2=O)C3=O)cc1Cl` (configuration not stated), the melting point was 240 to 242 °C. `CCN1c2ncccc2NC(=O)c2cc(CCc3ccccc3)cnc21` showed a melting point of 183 to 184 °C. Work on `CN1Cc2c(CO)ncn2-c2ccccc2C1=O` yielded a melting point of 219 to 221 °C. Work on `COc1cc(N2CCN(Cc3ccccc3)CC2)c2ncccc2c1C` yielded a melting point of 129 to 133 °C. In the case of `Cc1cc(Oc2ccccc2)ccc1[N+](=O)[O-]`, the melting point is reported as 43 to 46 °C. In the case of `OC(c1ccc(F)cc1)(c1ccc(F)cc1)C1CCN(Cc2ccccc2)C1` (configuration not stated), the melting point is reported as 99 to 100 °C. For `COC(=O)C[C@@H]1C[C@@H](COc2ccc(-c3ccc(C(=N)NC(=O)OCc4ccccc4)cc3)cc2)N(c2ccccc2)C1=O`, the melting point was 157 to 159 °C. `O=c1ccn(-c2cccc(S(=O)(=O)c3nc4ccccc4[nH]3)c2)nc1-c1ccnn1-c1ccccc1` gave a melting point of 160 to 161 °C. In the case of `O=C(N1CCN(c2ccccc2)CC1)N1CC(Oc2ccc(Br)cc2)C1`, the melting point is reported as 160 to 161 °C. `O=C(c1ccccc1)C(O)C1OC(n2cc(F)c(=O)[nH]c2=O)C(O)(C(=O)c2ccccc2)C1(O)C(=O)c1ccccc1` (configuration not stated) showed a melting point of 210 to 214 °C. With `CC(=O)Oc1c(C)nc(N)nc1C(C)C` the melting point was 141 to 142 °C. For `COC(=O)Cc1ccc(CNC(=O)C2Cc3ccccc3N2S(=O)(=O)c2ccc(-c3ccc(F)cc3C)cc2)cc1` (configuration not stated), the melting point was 71 to 75 °C. `CC(=NN(c1ccccc1)c1ccccc1)c1ccccn1` gave a melting point of 84 °C. For `N=C(N)c1ccc2cc(OC(=O)CCCCCNC(=O)OCc3ccccc3)ccc2c1`, the melting point was 119 to 122 °C. Work on `COCc1c(C(=O)NN)ncc2[nH]c3cccc(OCc4ccccc4)c3c12` yielded a melting point of 212 to 213 °C. For `O=c1[nH]c2cc(Cl)ccc2c(O)c1-c1ccc([N+](=O)[O-])cc1`, the melting point was > 350 °C. Compound `CC(Cc1ccc(OCCCO)cc1)NCC(O)c1cccc(C(F)(F)F)c1` (configuration not stated) has a melting point of 97 to 103 °C. `O=C(NCC1Cc2ccc3c(c2O1)CCCC3)OCc1ccccc1` (configuration not stated) showed a melting point of 88 to 90 °C. Compound `CC[C@@H](c1ccccc1)N(Cc1ccc(C(N)=O)cc1)S(=O)(=O)c1ccc(Cl)cc1` has a melting point of 158 to 159 °C. For `COC(=O)[C@H](c1ccccc1Cl)N1CCc2sc(OC(=O)c3ccc([N+](=O)[O-])cc3)cc2C1`, the melting point was 100 to 102 °C. With `NCC(=O)NC(Cc1ccncc1)c1ccccc1` (configuration not stated) the melting point was 145 to 147 °C. Work on `O=C1CC2(CCCC2)CC(=O)N1CCCCc1ccncc1` yielded a melting point of 155 to 157 °C. For `O=C(c1ccc(Cl)cc1)C(O)(Cn1cncn1)C(Cl)(Cl)Cl` (configuration not stated), the melting point was 173 to 174 °C. For `CSC(=O)N1c2ccccc2C(=O)N(C(C)C)S1(=O)=O`, the melting point was 125 to 127 °C. In the case of `COc1cn(-c2ccc(-n3cccn3)cc2F)nc(C(=O)N(C)OC)c1=O`, the melting point is reported as 187 to 189 °C. With `CC(=O)OC1CSC(Oc2cc(-c3ccnc(F)c3)cnc2F)C(OC(C)=O)C1OC(C)=O` (configuration not stated) the melting point was 142 to 144 °C. Compound `C=CCOc1cc2c(c(Cl)c1Cl)C(=O)C(C)(c1ccccc1)C2` (configuration not stated) has a melting point of 105 °C. Work on `COC(=O)C1=C(O)c2c(c3cc(OC)ccc3n2C)S(=O)(=O)N1` yielded a melting point of 225 to 226 °C. Work on `Clc1nc(-c2ncccn2)nc(Cl)c1-c1cccs1` yielded a melting point of 159 to 160 °C. For `COCOc1cc(Cl)c(Br)cc1C(=O)c1ncccc1OCOC`, the melting point was 70 to 72 °C. `CN(C)C[C@@H]1NCCC[C@H]1O` (relative stereo) showed a melting point of 50 to 60 °C. With `COC(=O)c1ccc(C(O)c2cc3cc(C(F)(F)F)ccc3n2S(=O)(=O)c2ccc(C(C)C)cc2)cc1` (configuration not stated) the melting point was 68 °C. `c1ccc(CCOCCOc2ccc(OCc3ccccc3)cc2)cc1` gave a melting point of 46 to 49 °C. `COc1ccc2[nH]cc([C@H]3CC[C@@H](N4CCN(c5cccc6[nH]ccc56)CC4)CC3)c2c1` showed a melting point of 105 to 108 °C. `CCOC(=O)c1cc(Cl)c2cccc(OC)c2n1` gave a melting point of 131 to 132 °C. In the case of `COc1cc(-c2ccccc2C)ccc1C(=O)N1Cc2ccc(C(=O)O)n2Cc2ccccc21`, the melting point is reported as 144 to 146 °C. `CNc1nnc(-c2ccc3occ(-c4cccc(OC(F)(F)F)c4)c3c2)o1` showed a melting point of 169 to 170 °C. `O=S(=O)(CCCCCOc1ccc(C2=C(c3ccc(O)cc3)CCCc3cc(O)ccc32)cc1)CCCC(F)(F)C(F)(F)F` gave a melting point of 168 to 170 °C. `CNC1COc2ccc3[nH]c(C(F)(F)F)nc3c2O1` (configuration not stated) showed a melting point of 199 to 201 °C. Compound `COc1cc(CO)c(-c2cccc(OCCC(C)CCCC(C)C)c2)cc1CO` (configuration not stated) has a melting point of 55 °C. Compound `Cc1sc2c(c1C)C(c1ccc(Cl)cc1)=N[C@@H](CC(=O)NCCO)c1nnc(C)n1-2` has a melting point of 254 to 255 °C. In the case of `CCCCCc1ccc(OC(=O)N2CCC(OC(=O)NCCCCCCOC(=O)N3CCC4(CCCC4)CC3)CC2)cc1`, the melting point is reported as 100 to 102 °C. For `CCCCCCCCCCCCCCC(O)=S`, the melting point was 60 to 62 °C. Work on `Nc1nc(-c2ccc(Cl)cc2)c(CCC(=O)N2CCS(=O)(=O)CC2)s1` yielded a melting point of 220 to 222 °C. For `c1ccc2c(c1)sc1nncn12`, the melting point was 175 to 176 °C. With `O=C1C(c2ccccc2)c2cccc3c2N1CCN3` (configuration not stated) the melting point was 168 to 171 °C. For `NS(=O)(=O)c1cc2ncc(O)cc2s1`, the melting point was 248 to 250 °C. With `COc1cccc(C(=O)C=C2CCCN2C)c1` the melting point was 92 to 93 °C. `COc1cc(-c2cc(C(F)(F)F)nn2-c2ccc(S(C)(=O)=O)cc2)ccc1-c1ccco1` gave a melting point of 138 to 140 °C.
